{
  "source": "paper PMC3909264",
  "about": "“A Novel Acylaminoimidazole Derivative, WN1316, Alleviates Disease Progression via Suppression of Glial Inflammation in ALS Mouse Model” (PLoS ONE, 2014)",
  "key": {"HeLa cells": {"tested_on": "HeLa cells", "experiment": "Detection of intracellular ROS, •OH and 4-HNE after oxidative insult", "assay_type": "cell-based, human", "settings": "10 µM, 8 h, then menadione or FeSO4/H2O2 1 h", "method": "HeLa cells (ATCC, CCL-2) cultured on poly-L-lysine-coated coverslips were treated with WN1316 (10 µM) or vehicle (DMSO) for 8 h and incubated with 10 µM H2DCF-DA for 30 min. Cells were then exposed to 60 µM menadione for 1 h. Confocal fluorescence images were obtained using Zeiss LSM 700 confocal microscope.\nTo detect the hydroxyl radical (•OH), we used hydroxyphenyl fluorescein (HPF) as a specific probe. In brief, HeLa cells were treated with WN1316 (10 µM) or vehicle (DMSO) for 8 h and then incubated with 100 µM HPF for 30 min at 37°C in Hanks’s buffer (Invitrogen). After washing with phosphate-buffered saline (PBS), the reaction buffer (0.1 mM FeSO4, 0.2 mM H2O2) was added, and cells were incubated for 1 h at 37°C to generate •OH. Confocal fluorescence images were obtained using the lambda mode of Zeiss LSM 510 Meta confocal microscope and analytical software.\nHeLa cells cultured on poly-L-lysine-coated coverslips were treated with 10 µM WN1316 or DMSO for 8 h, and then incubated in fresh medium containing 60 µM menadione for 1 h. Cells were fixed in 0.1% glutaraldehyde/4% paraformaldehyde/PBS for 10 min, rinsed three times with PBS, and permeabilized with 0.1% Triton-X-100 for 15 min. […]"}, "ALS(SOD1^H46R) mice": {"tested_on": "ALS(SOD1^H46R) mice", "experiment": "Post-onset oral administration in ALS(SOD1^H46R) mice: motor function, body weight, survival", "assay_type": "in vivo", "settings": "for balance beam test: duration from onset to the day the mouse was unable to stay on the bar: n = 26, mean ± SEM (vehicle 20.7±0.7); for survival interval after onset: n = 26, mean ± SD (vehicle 36.6±6.2)", "description": "Transgenic mice carrying the H46R mutation in the human SOD1 gene; SOD1^H46R were used as a familial ALS mouse model. […] Since the genetic background is one of the important factors modulating disease phenotypes in mutant SOD1 transgenic mice, we first generated a congenic line of ALS(SOD1^H46R) transgenic mice by backcrossing more than 15 generations to B6 mice.\nThe lines were maintained as hemizygotes by mating ALS(SOD1^H46R) and ALS(SOD1^G93A) males with B6 females. Offspring were genotyped by PCR using genomic DNA from tail tissue. Mice were housed at 23°C with a 12 h light/dark cycle, in which water and food was available ad libitum. The condition of each animal was monitored weekly initially and then daily after disease onset. The lifespan was determined by the days from disease onset to the endpoint, in which mouse lost active and/or spontaneous movement. All animal experimental procedures were approved by the Institutional Animal Care and Use Committee at Tokai University.\nWN1316 was dissolved in MQ water, and diluted with physiological saline. ALS(SOD1^H46R) transgenic mice were given WN1316 via gastric tube (CAT.No.4202, Fuchigami) at a dose of either 1 µg, 10 µg or 100 µg/5 ml/kg body weight. ALS(SOD1^G93A) transgenic mice were given 10 µg/kg WN1316. Animals simultaneously treated with physiological saline (vehicle group, 5 ml/kg) were used as controls.\nTo determine the onset of motor dysfunction in ALS(SOD1^H46R) transgenic mice, we adopted a balance beam test as previously described in detail. To determine the onset of motor dysfunction in ALS(SOD1^G93A) transgenic mice, we adopted both balance beam and grip strength tests. Grip strength test was assessed using a traction meter (BrainScience Idea Co., Ltd.). Each mouse was given three trials, and the highest limb strength score was recorded. For ALS(SOD1^G93A) transgenic mice, grip strength tests were started at 11 weeks of age and performed twice a week until an over 20% reduction compared with the initial limb strength score at 11 weeks of age was observed. Finally, a grade 3 in the balance beam test and over 20% reduction of limb strength score were defined as the sign of the disease onset in ALS(SOD1^G93A) transgenic mice.\nThe gross phenotypes were measured blindly. The body weight of each mouse was measured weekly initially and then daily after disease onset. Mice were assessed for gross behavior every week from 12 weeks of age in ALS(SOD1^H46R) mice and from 11 weeks of age in ALS(SOD1^G93A) mice until the endpoint. In particular, hind limb movement and rearing behavior of each animal were monitored weekly from 12 weeks of age until the end stage. The days from the disease onset to the endpoint were counted individually as the survival interval.\nWe assessed motor performance and coordination, and balance in the mice by the balance-beam test, vertical pole test, and footprint analysis as previously described in detail and grip strength test as described above. In brief, the balance-beam test was performed every day after the onset until mice were unable to stay on the bar. Each mouse was given a maximum of five vertical pole trials using the following two criteria; 1) a cutoff of 45cm and 2) the task was terminated when mouse reached the vertical ascending distance of 45 cm. The highest vertical ascending distance was scored. The footprint trial was conducted at 18 and 21 weeks of age in ALS(SOD1^H46R) mice and at 12, 16, and 20 weeks of age in ALS(SOD1^G93A) mice. Grip strength test of ALS(SOD1^H46R) mice was started at 17 weeks of age and performed once a week.\nTo evaluate the spontaneous motor activities in mice, we conducted cage activity and rearing performance tests by using SUPERMEX with infrared ray sensor monitor (Muromachi Kikai). […]"}, "HO-1 mRNA": {"tested_on": "HO-1 mRNA", "experiment": "qRT-PCR of HO-1 mRNA in lumbar spinal cord of wild type mice", "assay_type": "in vivo, mouse (C57BL/6N)", "settings": "100 µg/kg oral, 3 h post-administration", "method": "Wild type mice at 8 weeks of age (male, C57BL/6N) were administered per os with either vehicle (physiological saline) or WN1316 (100 µg/kg body weight). After 1 h, 3 h, 6 h and 9 h, mice were transcardially perfused with physiological saline containing 10% heparin under anesthesia with 2% isoflurane by inhalation, and the lumbar spinal cord was dissected. Total RNA was extracted from lumbar spinal cord using Sepasol-RNA I Super G (Nacalai Tesque), and purified by SV Total RNA Isolation System (Promega) according to manufacturer's instructions. qRT-PCR was performed with QuantiFast™ SYBR Green RT-PCR Kit (QIAGEN) on CFX96 (BIO RAD). The PCR primers (QuantiTect Primer Assays) for HO-1 (Mm_Hmox1_1_SG) and PPIA (Mm_Ppia_1_SG) were purchased from QIAGEN. The levels of all transcripts were normalized for the PPIA mRNA level in each sample. Relative expression was calculated using the ΔΔCt method (Livak 2001)."}},
  "note": "Counter-ions that a name gives are not always drawn.",
  "data": [
    {"smiles": "Cc1cc(C)c(N(C)CC(=O)Nc2nc(-c3ccccn3)c[nH]2)c(C)c1", "note": "[WN1316, 2-[mesityl(methyl)amino]-N-[4-(pyridin-2-yl)-1H-imidazol-2-yl] acetamide trihydrochloride]", "values": [
      {"measurement": "level of intracellular •OH and lipid peroxidation", "setting": "HeLa cells", "result": "markedly reduced their levels"},
      {"measurement": "balance beam test: duration from onset to the day the mouse was unable to stay on the bar", "setting": "ALS(SOD1^H46R) mice; 1 µg/kg/day p.o. post-onset", "result": "25.6 ± 0.9", "unit": "days"},
      {"measurement": "survival interval after onset", "setting": "ALS(SOD1^H46R) mice; 1 µg/kg/day p.o.", "result": "43.8 ± 5.5", "unit": "days"},
      {"measurement": "balance beam test: duration from onset to the day the mouse was unable to stay on the bar", "setting": "ALS(SOD1^H46R) mice; 10 µg/kg/day p.o. post-onset", "result": "26.3 ± 0.6", "unit": "days"},
      {"measurement": "survival interval after onset", "setting": "ALS(SOD1^H46R) mice; 10 µg/kg/day p.o.", "result": "43.9 ± 4.4", "unit": "days"},
      {"measurement": "balance beam test: duration from onset to the day the mouse was unable to stay on the bar", "setting": "ALS(SOD1^H46R) mice; 100 µg/kg/day p.o. post-onset", "result": "28.4 ± 0.8", "unit": "days"},
      {"measurement": "survival interval after onset", "setting": "ALS(SOD1^H46R) mice; 100 µg/kg/day p.o.", "result": "45.9 ± 6.0", "unit": "days"},
      {"measurement": "effect on mouse weight", "setting": "ALS(SOD1^H46R) mice; 1, 10, 100 µg/kg/day, 12–24 weeks of age", "result": "did not affect mouse weight"},
      {"measurement": "prolongation of post-onset survival", "setting": "ALS(SOD1^H46R) mice; 1–100 µg/kg/day p.o., vs vehicle", "result": "20–25%"},
      {"measurement": "vertical pole climbing and grip strength", "setting": "ALS(SOD1^H46R) mice; 1–100 µg/kg/day, 21–22 weeks of age (late symptomatic stage), vs vehicle", "result": "significant preservation of motor performance"},
      {"measurement": "gait on footprint analysis", "setting": "ALS(SOD1^H46R) mice; 21 weeks of age (late symptomatic stage)", "result": "short but still steady gait"},
      {"measurement": "autopsy findings of organs such as heart and kidney", "setting": "ALS(SOD1^H46R) mice; WN1316-treated mice, data not shown", "result": "no pathological abnormalities"},
      {"measurement": "HO-1 mRNA in the lumbar spinal cord", "setting": "HO-1 mRNA", "result": "transient induction"}
    ]}
  ]
}
